Marks after values point to notes of the source that are not given here.
Tests used:
[1] = tested on: acetic acid induced chronic gastric ulcer; assay: Acetic acid induced chronic gastric ulcer in rats; assay type: in vivo, rat; details: 2.0 mg/kg p.o. for seven days
Method: In our experiments the method […] of Okabe et al was used. Male Wistar rats of 150-170 g were narcotize part of the stomach.
The test compound was given p.o. on the fifth day after the operation for seven days. The animals were euthanized with ether after 24 hours of the last dose and the abdomen was macroscopically examined (exravasation, accretion), the stomach was excised and the diameters of ulcers were measured.

[2] = tested on: carrageenan induced paw oedema; assay: Inhibition of carrageenan induced oedema in rats; assay type: in vivo, rat; details: CARR induced oedema test
Method: The treated paw was immersed up to the tibio-tarsal articulation into the chamber and the volume of displaced liquid was determined as the degree of the inflammation. Degree of inflammation (ml)=volume after the CARR treatment (ml)−volume before the CARR treatment (ml)
The degree of the anti-inflammatory effect of the treated group (which obtained test agent) was compared to that of the control group (which obtained only vehicle). The test compound and the vehicle were given orally by blunt-ended needle cannula one hour before the CARR treatment. The volume of the treated paw was measured at 3 and 5 hours after the CARR treatment and the change in the degree of inflammation in % was calculated according to the following formula: Anti-inflammatory activity %=100×[control group (ml)−treated group (ml)/control group (ml)]
[…] Anti-inflammatory activity of the compounds was determined in % at 4 and 6 hours after p.o. treatment and ED30 was calculated.

Row | SMILES | melting point [°C] | other results
1 | CCOC(=O)CONS(=O)(=O)c1ccc(-n2nc(C(F)(F)F)cc2-c2ccc(C)cc2)cc1 [Example 8, [4-(5-p-methylphenyl-3-trifluoromethyl-pyrazol-1-yl)-benzenesulfonylaminooxy]-acetic acid ethyl ester] | 143 to 144 | –
2 | Cc1ccc(-c2cc(C(F)(F)F)nn2-c2ccc(S(=O)(=O)NOCCC(=O)O)cc2)cc1 [Example 9, 3-[4-(5-p-methylphenyl-3-trifluoromethyl-pyrazol-1-yl)-benzenesulfonylaminooxy]-propionic acid] | 176 to 178 | –
3 | COc1ccc2c(c1)c(CC(=O)O)c(C)n2C(=O)c1ccc(Cl)cc1 [Indometacin] | – | Area of ulcer (mm^2) [1]: 39.0 ± 5** mm^2; Change of bodyweight (g) + (increase) − (decrease) [1]: +2 ± 0.6 g
4 | CCOC(=O)C(C)ONS(=O)(=O)c1ccc(-n2nc(C(F)(F)F)cc2-c2ccc(C)cc2)cc1 (stereo not shown) [Example 10, 2-[4-(5-p-methylphenyl-3-trifluoromethyl-pyrazol-1-yl)-benzenesulfonylaminooxy]-propionic acid ethyl ester] | 137 to 138 | –
5 | CC(=O)ONS(=O)(=O)c1ccc(-n2nc(C(F)(F)F)cc2-c2ccc(C)cc2)cc1 [Example 11, N-acetoxy-4-(5-p-methylphenyl-3-trifluoromethyl-pyrazol-1-yl)-benzenesulamide] | 138 to 140 | –
6 | Cc1ccc(-c2cc(C(F)(F)F)nn2-c2ccc(S(=O)(=O)NOC(C)C(=O)[O-])cc2)cc1.[Na+] (racemic) [Example 6, Disodium (R,S)-2-[4-(5-p-methylphenyl-3-trifluoromethyl-pyrazol-1-yl)-benzenesulfonyl-aminooxy]-propionic acid monohydrate] | – | anti-inflammatory activity compared with celecoxib [2]: significantly (p<0.05) higher

The next lines start with results.

Row | melting point [°C] | SMILES | other results
7 | 134 to 136 | Cc1ccc(-c2cc(C(F)(F)F)nn2-c2ccc(S(=O)(=O)NOC(=O)C(C)(C)C)cc2)cc1 [Example 13, N-pivaloyloxy-4-(5-p-methylphenyl-3-trifluoromethyl-pyrazol-1-yl)-benzenesulfonamide] | –
8 | 152 to 155 | Cc1ccc(-c2cc(C(F)(F)F)nn2-c2ccc(S(=O)(=O)NOC(=O)c3ccccc3)cc2)cc1 [Example 12, N-benzoyloxy-4-(5-p-methylphenyl-3-trifluoromethyl-pyrazol-1-yl)-benzenesulfonamide] | –
9 | 224 to 225 | Cc1ccc(-c2cc(C(F)(F)F)nn2-c2ccc(S(=O)(=O)NOCC(=O)O)cc2)cc1 [Example 7, [4-(5-p-methylphenyl-3-trifluoromethyl-pyrazol-1-yl)-benzenesulfonylaminooxy]-acetic acid] | –
